What was measured:
blackgrass = assay: Test Example 5: herbicidal effect by foliage application, plastic box (Table 20, symbol J); assay type: in vivo, blackgrass (Alopecurus myosuroides); conditions: foliage application, AAH 320 g/ha, evaluated three weeks after application
Method in brief: (§1)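 Sow seeds spot-wise in sterilized diluvial soil; cover with ~1.5 cm soil. Grow 14 days in greenhouse, 25° C. to 30° C. Spray foliage with emulsion diluted to predetermined amount. Rate effect after 3 weeks.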

southern crabgrass = assay: Test Example 5: herbicidal effect by foliage application, plastic box (Table 20, symbol F); assay type: in vivo, southern crabgrass (Digitaria ciliaris); conditions: foliage application, AAH 320 g/ha, evaluated three weeks after application
Method in brief: as §1

Italian ryegrass = assay: Test Example 5: herbicidal effect by foliage application, plastic box (Table 20, symbol K); assay type: in vivo, Italian ryegrass (Lolium multiflorum); conditions: foliage application, AAH 320 g/ha, evaluated three weeks after application
Method in brief: as §1

wild oat = assay: Test Example 5: herbicidal effect by foliage application, plastic box (Table 20, symbol I); assay type: in vivo, wild oat (Avena fatua); conditions: foliage application, AAH 320 g/ha, evaluated three weeks after application
Method in brief: as §1

redroot pigweed = assay: Test Example 5: herbicidal effect by foliage application, plastic box (Table 20, symbol N); assay type: in vivo, redroot pigweed (Amaranthus retroflexus); conditions: foliage application, AAH 320 g/ha, evaluated three weeks after application
Method in brief: as §1

velvetleaf = assay: Test Example 5: herbicidal effect by foliage application, plastic box (Table 20, symbol M); assay type: in vivo, velvetleaf (Abutilon theophrasti); conditions: foliage application, AAH 320 g/ha, evaluated three weeks after application
Method in brief: as §1

Chinese sprangletop = assay: Test Example 3: herbicidal effect by foliage application, Wagner pot (Table 18, symbol D); assay type: in vivo, chinese sprangletop (Leptochloa chinensis); conditions: amount of applied herbicide 320 g/ha
Method in brief: (§2)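 Plants were sown in alluvial soil held under 0.1–0.5 cm standing water and grown 14 days in a greenhouse at 25–30 °C. An emulsifiable formulation, water-diluted to the set dose, was then sprayed onto the foliage, and effects were scored three weeks later using previously defined criteria.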

green foxtail = assay: Test Example 5: herbicidal effect by foliage application, plastic box (Table 20, symbol G); assay type: in vivo, green foxtail (Setaria viridis); conditions: foliage application, AAH 320 g/ha, evaluated three weeks after application
Method in brief: as §1

rice flat sedge = assay: Test Example 3: herbicidal effect by foliage application, Wagner pot (Table 18, symbol E); assay type: in vivo, rice flat sedge (Cyperus iria); conditions: amount of applied herbicide 320 g/ha
Method in brief: as §2

persian speedwell = assay: Test Example 5: herbicidal effect by foliage application, plastic box (Table 20, symbol R); assay type: in vivo, Persian speedwell (Veronica persica); conditions: foliage application, AAH 320 g/ha, evaluated three weeks after application
Method in brief: as §1

barnyard grass [1] = assay: Test Example 3: herbicidal effect by foliage application, Wagner pot (Table 18, symbol H); assay type: in vivo, barnyard grass (Echinochloa crus-galli); conditions: amount of applied herbicide 320 g/ha
Method in brief: as §2

chickweed = assay: Test Example 5: herbicidal effect by foliage application, plastic box (Table 20, symbol P); assay type: in vivo, common chickweed (Stellaria media); conditions: foliage application, AAH 320 g/ha, evaluated three weeks after application
Method in brief: as §1

lambsquarters = assay: Test Example 5: herbicidal effect by foliage application, plastic box (Table 20, symbol O); assay type: in vivo, lambsquarters (Chenopodium album); conditions: foliage application, AAH 320 g/ha, evaluated three weeks after application
Method in brief: as §1

barnyard grass [2] = assay: Test Example 5: herbicidal effect by foliage application, plastic box (Table 20, symbol H); assay type: in vivo, barnyard grass (Echinochloa crus-galli); conditions: foliage application, AAH 320 g/ha, evaluated three weeks after application
Method in brief: as §1

windgrass = assay: Test Example 5: herbicidal effect by foliage application, plastic box (Table 20, symbol L); assay type: in vivo, windgrass (Apera spica-venti); conditions: foliage application, AAH 320 g/ha, evaluated three weeks after application
Method in brief: as §1

SMILES	J: blackgrass, herbicidal effect (criteria 0-5) (blackgrass)	F: southern crabgrass, herbicidal effect (criteria 0-5) (southern crabgrass)	K: Italian ryegrass, herbicidal effect (criteria 0-5) (Italian ryegrass)	I: wild oat, herbicidal effect (criteria 0-5) (wild oat)	N: redroot pigweed, herbicidal effect (criteria 0-5) (redroot pigweed)	M: velvetleaf, herbicidal effect (criteria 0-5) (velvetleaf)	herbicidal effect on D: Chinese sprangletop (Chinese sprangletop)	G: green foxtail, herbicidal effect (criteria 0-5) (green foxtail)	herbicidal effect on E: rice flat sedge (rice flat sedge)	R: persian speedwell, herbicidal effect (criteria 0-5) (persian speedwell)	herbicidal effect on H: barnyard grass (barnyard grass [1])	P: chickweed, herbicidal effect (criteria 0-5) (chickweed)	O: lambsquarters, herbicidal effect (criteria 0-5) (lambsquarters)	H: barnyard grass, herbicidal effect (criteria 0-5) (barnyard grass [2])	L: windgrass, herbicidal effect (criteria 0-5) (windgrass)
Cc1nn(C)c(=O)c(-c2c(-c3cccc(SCC(F)(F)F)c3)sc3ccc(F)cc23)c1O [2-262]	3 (Herbicidal rate of 40% or more and less than 70%)	0 (Herbicidal rate of 5% or less (almost no effect))	3 (Herbicidal rate of 40% or more and less than 70%)	3 (Herbicidal rate of 40% or more and less than 70%)	5 (Herbicidal rate of 90% or more (almost completely withered))	4 (Herbicidal rate of 70% or more and less than 90%)	0 (Herbicidal rate of 5% or less (almost no effect))	0 (Herbicidal rate of 5% or less (almost no effect))	2 (Herbicidal rate of 20% or more and less than 40%)	5 (Herbicidal rate of 90% or more (almost completely withered))	3 (Herbicidal rate of 40% or more and less than 70%)	5 (Herbicidal rate of 90% or more (almost completely withered))	3 (Herbicidal rate of 40% or more and less than 70%)	0 (Herbicidal rate of 5% or less (almost no effect))	4 (Herbicidal rate of 70% or more and less than 90%)
Cc1nn(C)c(=O)c(-c2c(-c3ccc(OC(F)F)cc3)sc3ccc(F)cc23)c1OC(=O)C(C)(C)c1ccccc1 [2-282]	0 (Herbicidal rate of 5% or less (almost no effect))	0 (Herbicidal rate of 5% or less (almost no effect))	0 (Herbicidal rate of 5% or less (almost no effect))	0 (Herbicidal rate of 5% or less (almost no effect))	5 (Herbicidal rate of 90% or more (almost completely withered))	4 (Herbicidal rate of 70% or more and less than 90%)	0 (Herbicidal rate of 5% or less (almost no effect))	4 (Herbicidal rate of 70% or more and less than 90%)	0 (Herbicidal rate of 5% or less (almost no effect))	5 (Herbicidal rate of 90% or more (almost completely withered))	3 (Herbicidal rate of 40% or more and less than 70%)	5 (Herbicidal rate of 90% or more (almost completely withered))	5 (Herbicidal rate of 90% or more (almost completely withered))	1 (Herbicidal rate of 5% or more and less than 20%)	0 (Herbicidal rate of 5% or less (almost no effect))
Cc1nn(C)c(=O)c(-c2c(-c3ccc(OC(F)F)cc3)sc3ccc(F)cc23)c1OC(=O)SC(C)(C)C [2-296]	3 (Herbicidal rate of 40% or more and less than 70%)	0 (Herbicidal rate of 5% or less (almost no effect))	1 (Herbicidal rate of 5% or more and less than 20%)	0 (Herbicidal rate of 5% or less (almost no effect))	5 (Herbicidal rate of 90% or more (almost completely withered))	5 (Herbicidal rate of 90% or more (almost completely withered))	2 (Herbicidal rate of 20% or more and less than 40%)	5 (Herbicidal rate of 90% or more (almost completely withered))	3 (Herbicidal rate of 40% or more and less than 70%)	5 (Herbicidal rate of 90% or more (almost completely withered))	5 (Herbicidal rate of 90% or more (almost completely withered))	5 (Herbicidal rate of 90% or more (almost completely withered))	5 (Herbicidal rate of 90% or more (almost completely withered))	4 (Herbicidal rate of 70% or more and less than 90%)	0 (Herbicidal rate of 5% or less (almost no effect))

— US20230085307A1, “PYRIDAZINONE COMPOUND AND HERBICIDE” (NISSAN CHEMICAL CORPORATION, priority 2019, published 2023)
